In PubChem BioAssay (NCI):
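Cells were grown in 96-well plates and exposed to each compound for 48 hours at five concentrations; endpoints were interpolated linearly between bracketing concentrations, or set to the highest concentration if not reached. GI50: concentration for 50% inhibition of growth. TGI denotes the concentration required for complete inhibition of growth.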

Assays:
Assay in all cases: inhibition of tumour cell growth, NCI panel, 48 h
786-0 renal = tested on: 786-0 renal
A498 renal = tested on: A498 renal
A549 NSCLC = tested on: A549 NSCLC
BT-549 breast = tested on: BT-549 breast
CAKI-1 renal = tested on: CAKI-1 renal
CCRF-CEM leukemia = tested on: CCRF-CEM leukemia
COLO 205 colon = tested on: COLO 205 colon
DU-145 prostate = tested on: DU-145 prostate
HCC-2998 colon = tested on: HCC-2998 colon
HCT-116 colon = tested on: HCT-116 colon
HCT-15 colon = tested on: HCT-15 colon
HL-60(TB) leukemia = tested on: HL-60(TB) leukemia
HOP-62 NSCLC = tested on: HOP-62 NSCLC
HOP-92 NSCLC = tested on: HOP-92 NSCLC
HS 578T breast = tested on: HS 578T breast
HT29 colon = tested on: HT29 colon
IGROV1 ovarian = tested on: IGROV1 ovarian
K-562 leukemia = tested on: K-562 leukemia
KM12 colon = tested on: KM12 colon
MALME-3M melanoma = tested on: MALME-3M melanoma
MDA-MB-231 breast = tested on: MDA-MB-231 breast
MDA-MB-435 = tested on: MDA-MB-435
MOLT-4 leukemia = tested on: MOLT-4 leukemia
NCI-H226 lung = tested on: NCI-H226 lung
NCI-H460 lung = tested on: NCI-H460 lung
NCI-H522 lung = tested on: NCI-H522 lung
NCI/ADR-RES ovarian = tested on: NCI/ADR-RES ovarian
OVCAR-3 ovarian = tested on: OVCAR-3 ovarian
OVCAR-4 ovarian = tested on: OVCAR-4 ovarian
OVCAR-5 ovarian = tested on: OVCAR-5 ovarian
OVCAR-8 ovarian = tested on: OVCAR-8 ovarian
PC-3 prostate = tested on: PC-3 prostate
RPMI-8226 leukemia = tested on: RPMI-8226 leukemia
RXF 393 renal = tested on: RXF 393 renal
SF-268 CNS = tested on: SF-268 CNS
SF-295 CNS = tested on: SF-295 CNS
SF-539 CNS = tested on: SF-539 CNS
SK-MEL-2 melanoma = tested on: SK-MEL-2 melanoma
SK-MEL-5 melanoma = tested on: SK-MEL-5 melanoma
SN12C renal = tested on: SN12C renal
SNB-19 CNS = tested on: SNB-19 CNS
SNB-75 CNS = tested on: SNB-75 CNS
SR leukemia = tested on: SR leukemia
SW-620 colon = tested on: SW-620 colon
T-47D breast = tested on: T-47D breast
U251 CNS = tested on: U251 CNS
UACC-257 melanoma = tested on: UACC-257 melanoma
UACC-62 melanoma = tested on: UACC-62 melanoma
UO-31 renal = tested on: UO-31 renal

## COc1cnc2c(c1)C(=O)c1c-2n(CCCNC(C)C)c(=O)c2cc(Cl)ccc12
786-0 renal
  GI50: 438 nM
  TGI: 1980 nM
A498 renal
  GI50: 334 nM
  TGI: 5270 nM
A549 NSCLC
  GI50: 90.2 nM
  TGI: 2070 nM
BT-549 breast
  GI50: 698 nM
  TGI: 2590 nM
CAKI-1 renal
  GI50: 65.2 nM
  TGI: 2150 nM
CCRF-CEM leukemia
  GI50: 41.9 nM
  TGI: 1060 nM
COLO 205 colon
  GI50: 111 nM
  TGI: 2000 nM
DU-145 prostate
  GI50: 173 nM
  TGI: 2060 nM
HCC-2998 colon
  GI50: 1370 nM
  TGI: 2850 nM
HCT-116 colon
  GI50: 138 nM
  TGI: 1010 nM
HCT-15 colon
  GI50: 1080 nM
  TGI: 2780 nM
HL-60(TB) leukemia
  GI50: 300 nM
  TGI: 1690 nM
HOP-62 NSCLC
  GI50: 70.9 nM
  TGI: 1530 nM
HOP-92 NSCLC
  GI50: 1050 nM
  TGI: 2440 nM
HS 578T breast
  GI50: 1520 nM
  TGI: 4080 nM
HT29 colon
  GI50: 398 nM
  TGI: 2090 nM
IGROV1 ovarian
  GI50: 756 nM
  TGI: 2320 nM
K-562 leukemia
  GI50: 451 nM
  TGI: 2130 nM
KM12 colon
  GI50: 1090 nM
  TGI: 2450 nM
MALME-3M melanoma
  GI50: 1500 nM
  TGI: 3070 nM
MDA-MB-231 breast
  GI50: 1390 nM
  TGI: 3180 nM
MDA-MB-435
  GI50: 1140 nM
  TGI: 2420 nM
MOLT-4 leukemia
  GI50: 39.7 nM
  TGI: 452 nM
NCI-H226 lung
  GI50: 1580 nM
  TGI: 30100 nM
NCI-H460 lung
  GI50: 37.2 nM
  TGI: 1200 nM
NCI-H522 lung
  GI50: 133 nM
  TGI: 1970 nM
NCI/ADR-RES ovarian
  GI50: 301 nM
  TGI: 2750 nM
OVCAR-3 ovarian
  GI50: 1390 nM
  TGI: 3020 nM
OVCAR-4 ovarian
  GI50: 1040 nM
  TGI: 2700 nM
OVCAR-5 ovarian
  GI50: 1700 nM
  TGI: 3500 nM
OVCAR-8 ovarian
  GI50: 286 nM
  TGI: 2130 nM
PC-3 prostate
  GI50: 948 nM
  TGI: 2570 nM
RPMI-8226 leukemia
  GI50: 1210 nM
  TGI: 3350 nM
RXF 393 renal
  GI50: 568 nM
  TGI: 2010 nM
SF-268 CNS
  GI50: 148 nM
  TGI: 1940 nM
SF-295 CNS
  GI50: 52.3 nM
  TGI: 1430 nM
SF-539 CNS
  GI50: 554 nM
  TGI: 1870 nM
SK-MEL-2 melanoma
  GI50: 13300 nM
  TGI: 34900 nM
SK-MEL-5 melanoma
  GI50: 1140 nM
  TGI: 2380 nM
SN12C renal
  GI50: 417 nM
  TGI: 2110 nM
SNB-19 CNS
  GI50: 439 nM
  TGI: 2610 nM
SNB-75 CNS
  GI50: 146 nM
  TGI: 1590 nM
SR leukemia
  GI50: 57.7 nM
  TGI: 464 nM
SW-620 colon
  GI50: 50.3 nM
  TGI: 1710 nM
T-47D breast
  GI50: 278 nM
  TGI: 2550 nM
U251 CNS
  GI50: 65.4 nM
  TGI: 1530 nM
UACC-257 melanoma
  GI50: 12100 nM
  TGI: 32800 nM
UACC-62 melanoma
  GI50: 303 nM
  TGI: 1910 nM
UO-31 renal
  GI50: 498 nM
  TGI: 2040 nM
